Literature values in patent publication US20240226372A1, “HYDROPHILIC POLY(THIOKETAL) URETHANE SCAFFOLDS AND METHODS OF USE THEREOF” (Vanderbilt University, priority 2021, published 2024).

Test system: osteoblasts
Design: dose or concentration left out as unconfirmed
Settings: 21 antibiotics

## CN[C@H](CC(C)C)C(=O)N[C@H]1C(=O)N[C@@H](CC(N)=O)C(=O)N[C@H]2C(=O)N[C@H]3C(=O)N[C@H](C(=O)N[C@H](C(=O)O)c4cc(O)cc(O)c4-c4cc3ccc4O)[C@H](O)c3ccc(c(Cl)c3)Oc3cc2cc(c3O[C@@H]2O[C@H](CO)[C@@H](O)[C@H](O)[C@H]2O[C@H]2C[C@](C)(N)[C@H](O)[C@H](C)O2)Oc2ccc(cc2Cl)[C@H]1O [vancomycin]
  effects on osteoblast function: least detrimental effects
